According to patent publication US20260070945A1, “MACROCYCLIC IMMUNOMODULATORS” (Bristol-Myers Squibb Company, priority 2022, published 2026):
Where a SMILES comes first, the peptide text is derived from it. Bridges are numbered along the chain shown (N, C = ends). [ ]: non-standard residue; d: D form. The star is where a group is joined. ξ: configuration not given here. Phe(4-COOH) = N[C@@H](Cc1ccc(C(=O)O)cc1)C(=O)O; Bip = N[C@@H](Cc1ccc(-c2ccccc2)cc1)C(=O)O; Phe(3-Me) = Cc1cccc(C[C@H](N)C(=O)O)c1; Cha = N[C@@H](CC1CCCCC1)C(=O)O; Cit = NC(=O)NCCC[C@H](N)C(=O)O; Ile(3ξ) = CCC(C)[C@H](N)C(=O)O; Thr(3ξ) = CC(O)[C@H](N)C(=O)O; Carboxymethyl = O=C(O)C*; NMeA = CN[C@@H](C)C(=O)O; Aun = NCCCCCCCCCCC(=O)O; Dab = NCC[C@H](N)C(=O)O; AEEA = NCCOCCOCC(=O)O

These compounds were tested against T1, PD-1/PD-L1 interaction (PE-labeled human PD-L1-Ig binding to Jurkat cell line over-expressing human PD-1) (Homo sapiens, UniProt Q15116) (assay: Jurkat-PD-1 Cell Binding High-Content Screening Assay (CBA)). Conditions: Jurkat-hPD-1 cells, PE-labeled PD-L1-Ig 20 nM final; read-out: Jurkat HPD1 PDL1 IC50.
T1 construct: expressed in transfected cells; host or cells: Jurkat
T1 sequence (Q15116 25-288): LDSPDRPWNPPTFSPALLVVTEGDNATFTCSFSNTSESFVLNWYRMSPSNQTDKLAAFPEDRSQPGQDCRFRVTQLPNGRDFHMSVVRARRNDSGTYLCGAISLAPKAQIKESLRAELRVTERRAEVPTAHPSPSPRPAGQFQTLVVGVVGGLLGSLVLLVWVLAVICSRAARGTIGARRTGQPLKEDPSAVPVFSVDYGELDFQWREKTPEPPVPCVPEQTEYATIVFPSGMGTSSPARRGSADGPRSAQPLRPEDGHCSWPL
Procedure, shortened: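 Jurkat-hPD-1 cells (8×10^3/well) in DMEM with 10% fetal calf serum were preincubated with compound for 2 h at 37 °C. PE-labeled PD-L1-Ig was then added at 20 nM final for 1 h. Cells were fixed in paraformaldehyde with Hoechst 33342, washed and imaged by high-content imaging.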

Row | SMILES | IC50
1 | CC(=O)NCCCC[C@@H]1NC(=O)[C@H](Cc2ccc(-c3ccccc3)cc2)NC(=O)[C@H](C(C)C)NC(=O)[C@H](Cc2cccc(C)c2)NC(=O)[C@H](CC(=O)O)NC(=O)[C@H](Cc2ccc(C(=O)O)cc2)NC(=O)[C@H](Cc2ccc(OCC(=O)O)cc2)NC(=O)CSC[C@@H](C(=O)NCCOCCOCC(=O)NCCCCCCCCCCC(=O)O)NC(=O)[C@H](C(C)O)NC(=O)[C@H](C(C)C)NC(=O)[C@H](CC2CCCCC2)NC(=O)[C@H](CCN)NC(=O)[C@@H](CC(C)C)NC(=O)[C@H](C)N(C)C1=O (stereo partly drawn) [Example 2283] ({CH2CO}-Y(Carboxymethyl)[Phe(4-COOH)]D[Phe(3-Me)]V[Bip]K(Ac)[NMeA][dL][Dab][Cha]V[Thr(3ξ)]C[AEEA][Aun]-OH; thioether N-14) | 20.5 nM
2 | Cc1cccc(C[C@@H]2NC(=O)[C@H](CC(=O)O)NC(=O)[C@H](Cc3ccc(C(=O)O)cc3)NC(=O)[C@H](Cc3ccc(OCC(=O)O)cc3)NC(=O)CSC[C@@H](C(=O)NCCOCCOCC(=O)NCCCCCCCCCCC(=O)O)NC(=O)[C@H](C(C)O)NC(=O)[C@H](C(C)C)NC(=O)[C@H](CC3CCCCC3)NC(=O)[C@H](CCN)NC(=O)[C@@H](CC(C)C)NC(=O)[C@H](C)N(C)C(=O)[C@H](CCC(N)=O)NC(=O)[C@H](Cc3ccc(-c4ccccc4)cc3)NC(=O)[C@H](C(C)C)NC2=O)c1 (stereo partly drawn) [Example 2284] ({CH2CO}-Y(Carboxymethyl)[Phe(4-COOH)]D[Phe(3-Me)]V[Bip]Q[NMeA][dL][Dab][Cha]V[Thr(3ξ)]C[AEEA][Aun]-OH; thioether N-14) | 23.6 nM
3 | Cc1cccc(C[C@@H]2NC(=O)[C@H](CC(=O)O)NC(=O)[C@H](Cc3ccc(C(=O)O)cc3)NC(=O)[C@H](Cc3ccc(OCC(=O)O)cc3)NC(=O)CSC[C@@H](C(=O)NCCOCCOCC(=O)NCCCCCCCCCCC(=O)O)NC(=O)[C@H](CCCNC(N)=O)NC(=O)[C@H](C(C)C)NC(=O)[C@H](CC3CCCCC3)NC(=O)[C@H](CCN)NC(=O)[C@@H](CC(C)C)NC(=O)[C@H](C)N(C)C(=O)[C@H](C(C)C)NC(=O)[C@H](Cc3ccc(-c4ccccc4)cc3)NC(=O)[C@H](CC(C)C)NC2=O)c1 [Example 2286] ({CH2CO}-Y(Carboxymethyl)[Phe(4-COOH)]D[Phe(3-Me)]L[Bip]V[NMeA][dL][Dab][Cha]V[Cit]C[AEEA][Aun]-OH; thioether N-14) | 27.4 nM
4 | CC(=O)NCCCC[C@@H]1NC(=O)[C@H](Cc2ccc(-c3ccccc3)cc2)NC(=O)[C@H](C(C)C)NC(=O)[C@H](Cc2cccc(C)c2)NC(=O)[C@H](CC(=O)O)NC(=O)[C@H](Cc2ccc(OCC(=O)O)cc2)NC(=O)[C@H](CCCNC(=N)N)NC(=O)CSC[C@@H](C(=O)NCCOCCOCC(=O)NCCCCCCCCCCC(=O)O)NC(=O)[C@H](C(C)O)NC(=O)[C@H](C(C)C)NC(=O)[C@H](CC2CCCCC2)NC(=O)[C@H](CCN)NC(=O)[C@@H](CC(C)C)NC(=O)[C@H](C)N(C)C1=O (stereo partly drawn) [Example 2289] ({CH2CO}-RY(Carboxymethyl)D[Phe(3-Me)]V[Bip]K(Ac)[NMeA][dL][Dab][Cha]V[Thr(3ξ)]C[AEEA][Aun]-OH; thioether N-14) | 7.5 nM
5 | Cc1cccc(C[C@@H]2NC(=O)[C@H](CC(=O)O)NC(=O)[C@H](Cc3ccc(C(=O)O)cc3)NC(=O)[C@H](Cc3ccc(OCC(=O)O)cc3)NC(=O)CSC[C@@H](C(=O)N[C@@H](CCN)C(=O)NCCCCCCCCCCC(=O)O)NC(=O)[C@H](CCC(=O)O)NC(=O)[C@H](C(C)C)NC(=O)[C@H](CC3CCCCC3)NC(=O)[C@H](CCN)NC(=O)[C@@H](CC(C)C)NC(=O)[C@H](C)N(C)C(=O)[C@H](C(C)C)NC(=O)[C@H](Cc3ccc(-c4ccccc4)cc3)NC(=O)[C@H](CC(C)C)NC2=O)c1 [Example 2293] ({CH2CO}-Y(Carboxymethyl)[Phe(4-COOH)]D[Phe(3-Me)]L[Bip]V[NMeA][dL][Dab][Cha]VEC[Dab][Aun]-OH; thioether N-14) | 20.2 nM

Continued by falling IC50, values first:

Row | IC50 | SMILES
6 | 48.9 nM | CC(C)C[C@@H]1NC(=O)[C@H](Cc2c[nH]c3ccccc23)NC(=O)[C@H](CC(=O)O)NC(=O)[C@H](Cc2ccc(C(=O)O)cc2)NC(=O)[C@H](Cc2ccc(OCC(=O)O)cc2)NC(=O)CSC[C@@H](C(=O)NCCOCCOCC(=O)NCCCCCCCCCCC(=O)O)NC(=O)[C@H](C(C)O)NC(=O)[C@H](C(C)C)NC(=O)[C@H](CC2CCCCC2)NC(=O)[C@H](CCN)NC(=O)[C@@H](CC(C)C)NC(=O)[C@H](C)N(C)C(=O)[C@H](CCC(N)=O)NC(=O)[C@H](Cc2ccc(-c3ccccc3)cc2)NC1=O (stereo partly drawn) [Example 2285] ({CH2CO}-Y(Carboxymethyl)[Phe(4-COOH)]DWL[Bip]Q[NMeA][dL][Dab][Cha]V[Thr(3ξ)]C[AEEA][Aun]-OH; thioether N-14)
7 | 35.3 nM | CC(=O)NCCCC[C@@H]1NC(=O)[C@H](Cc2ccc(-c3ccccc3)cc2)NC(=O)[C@H](CC(C)C)NC(=O)[C@H](Cc2cccc(C)c2)NC(=O)[C@H](CC(=O)O)NC(=O)[C@H](Cc2ccc(C(=O)O)cc2)NC(=O)[C@H](Cc2ccc(OCC(=O)O)cc2)NC(=O)CSC[C@@H](C(=O)NCCOCCOCC(=O)NCCCCCCCCCCC(=O)O)NC(=O)[C@H](C(C)O)NC(=O)[C@H](C(C)C)NC(=O)[C@H](CC2CCCCC2)NC(=O)[C@H](CCN)NC(=O)[C@@H](CC(C)C)NC(=O)[C@H](C)N(C)C1=O (stereo partly drawn) [Example 2282] ({CH2CO}-Y(Carboxymethyl)[Phe(4-COOH)]D[Phe(3-Me)]L[Bip]K(Ac)[NMeA][dL][Dab][Cha]V[Thr(3ξ)]C[AEEA][Aun]-OH; thioether N-14)
8 | 28.9 nM | CC(C)C[C@@H]1NC(=O)[C@H](Cc2c[nH]c3ccccc23)NC(=O)[C@H](CC(=O)O)NC(=O)[C@H](Cc2ccc(OCC(=O)O)cc2)NC(=O)[C@H](C(C)O)NC(=O)CSC[C@@H](C(=O)NCCOCCOCC(=O)NCCCCCCCCCCC(=O)O)NC(=O)[C@H](CCC(=O)O)NC(=O)[C@H](C(C)C)NC(=O)[C@H](CC2CCCCC2)NC(=O)[C@H](CCN)NC(=O)[C@@H](CC(C)C)NC(=O)[C@H](C)N(C)C(=O)[C@H](C(C)C)NC(=O)[C@H](Cc2ccc(-c3ccccc3)cc2)NC1=O (stereo partly drawn) [Example 2291] ({CH2CO}-[Thr(3ξ)]Y(Carboxymethyl)DWL[Bip]V[NMeA][dL][Dab][Cha]VEC[AEEA][Aun]-OH; thioether N-14)
9 | 19.9 nM | Cc1cccc(C[C@@H]2NC(=O)[C@H](CC(=O)O)NC(=O)[C@H](Cc3ccc(C(=O)O)cc3)NC(=O)[C@H](Cc3ccc(OCC(=O)O)cc3)NC(=O)CSC[C@@H](C(=O)N[C@@H](CCN)C(=O)NCCCCCCCCCCC(=O)O)NC(=O)[C@H](CCCNC(N)=O)NC(=O)[C@H](C(C)C)NC(=O)[C@H](CC3CCCCC3)NC(=O)[C@H](CCN)NC(=O)[C@@H](CC(C)C)NC(=O)[C@H](C)N(C)C(=O)[C@H](C(C)C)NC(=O)[C@H](Cc3ccc(-c4ccccc4)cc3)NC(=O)[C@H](CC(C)C)NC2=O)c1 [Example 2294] ({CH2CO}-Y(Carboxymethyl)[Phe(4-COOH)]D[Phe(3-Me)]L[Bip]V[NMeA][dL][Dab][Cha]V[Cit]C[Dab][Aun]-OH; thioether N-14)
10 | 18 nM | CC(C)C[C@H]1NC(=O)[C@H](C)N(C)C(=O)[C@H](C(C)C)NC(=O)[C@H](Cc2ccc(-c3ccccc3)cc2)NC(=O)[C@H](C(C)C)NC(=O)[C@H](Cc2c[nH]c3ccccc23)NC(=O)[C@H](CC(=O)O)NC(=O)[C@H](Cc2ccc(C(=O)O)cc2)NC(=O)[C@H](Cc2ccc(OCC(=O)O)cc2)NC(=O)CSC[C@@H](C(=O)N[C@@H](CCN)C(=O)NCCCCCCCCCCC(=O)O)NC(=O)[C@H](CCCNC(N)=O)NC(=O)[C@H](C(C)C)NC(=O)[C@H](CC2CCCCC2)NC(=O)[C@H](CCN)NC1=O [Example 2290] ({CH2CO}-Y(Carboxymethyl)[Phe(4-COOH)]DWV[Bip]V[NMeA][dL][Dab][Cha]V[Cit]C[Dab][Aun]-OH; thioether N-14)
11 | 17.9 nM | CCC(C)[C@@H]1NC(=O)[C@H](Cc2ccc(-c3ccccc3)cc2)NC(=O)[C@H](C(C)C)NC(=O)[C@H](Cc2c[nH]c3ccccc23)NC(=O)[C@H](CC(=O)O)NC(=O)[C@H](Cc2ccc(OCC(=O)O)cc2)NC(=O)[C@H](Cc2ccc(OCC(=O)O)cc2)NC(=O)CSC[C@@H](C(=O)N[C@H](CC(N)=O)C(=O)NCCCCCCCCCCC(=O)O)NC(=O)[C@H](CCCNC(=N)N)NC(=O)[C@H](C(C)C)NC(=O)[C@H](CC2CCCCC2)NC(=O)[C@H](CCN)NC(=O)[C@@H](CC(C)C)NC(=O)[C@H](C)N(C)C1=O (stereo partly drawn) [Example 2287] ({CH2CO}-Y(Carboxymethyl)Y(Carboxymethyl)DWV[Bip][Ile(3ξ)][NMeA][dL][Dab][Cha]VRC[dN][Aun]-OH; thioether N-14)
12 | 12.9 nM | CCC(C)[C@@H]1NC(=O)[C@H](Cc2ccc(-c3ccccc3)cc2)NC(=O)[C@H](C(C)C)NC(=O)[C@H](Cc2cccc(C)c2)NC(=O)[C@H](CC(=O)O)NC(=O)[C@H](Cc2ccc(OCC(=O)O)cc2)NC(=O)[C@H](CCCNC(=N)N)NC(=O)CSC[C@@H](C(=O)N[C@H](CC(N)=O)C(=O)NCCCCCCCCCCC(=O)O)NC(=O)[C@H](CCCNC(N)=O)NC(=O)[C@H](C(C)C)NC(=O)[C@H](CC2CCCCC2)NC(=O)[C@H](CCN)NC(=O)[C@@H](CC(C)C)NC(=O)[C@H](C)N(C)C1=O (stereo partly drawn) [Example 2288] ({CH2CO}-RY(Carboxymethyl)D[Phe(3-Me)]V[Bip][Ile(3ξ)][NMeA][dL][Dab][Cha]V[Cit]C[dN][Aun]-OH; thioether N-14)
13 | 10.3 nM | CC(=O)NCCCC[C@@H]1NC(=O)[C@H](Cc2ccc(-c3ccccc3)cc2)NC(=O)[C@H](C(C)C)NC(=O)[C@H](Cc2cccc(C)c2)NC(=O)[C@H](CC(=O)O)NC(=O)[C@H](Cc2ccc(C(=O)O)cc2)NC(=O)[C@H](Cc2ccc(OCC(=O)O)cc2)NC(=O)CSC[C@@H](C(=O)NCCOCCOCC(=O)NCCCCCCCCCCC(=O)O)NC(=O)[C@H](CCCNC(N)=O)NC(=O)[C@H](C(C)C)NC(=O)[C@H](CC2CCCCC2)NC(=O)[C@H](CCN)NC(=O)[C@@H](CC(C)C)NC(=O)[C@H](C)N(C)C1=O [Example 2295] ({CH2CO}-Y(Carboxymethyl)[Phe(4-COOH)]D[Phe(3-Me)]V[Bip]K(Ac)[NMeA][dL][Dab][Cha]V[Cit]C[AEEA][Aun]-OH; thioether N-14)
